The term IC50 denotes the concentration that inhibits the measured activity by half. High values mean weaker potency, low ones greater potency.

Structures are written as SMILES.

Consider 19 molecules from patent publication US10399945B2, “Tetrahydronaphthyl urea derivative” (MOCHIDA PHARMACEUTICAL CO., LTD., priority 2017, dated 2019).

Human TrkA Protein, sequence (P04629 33-796): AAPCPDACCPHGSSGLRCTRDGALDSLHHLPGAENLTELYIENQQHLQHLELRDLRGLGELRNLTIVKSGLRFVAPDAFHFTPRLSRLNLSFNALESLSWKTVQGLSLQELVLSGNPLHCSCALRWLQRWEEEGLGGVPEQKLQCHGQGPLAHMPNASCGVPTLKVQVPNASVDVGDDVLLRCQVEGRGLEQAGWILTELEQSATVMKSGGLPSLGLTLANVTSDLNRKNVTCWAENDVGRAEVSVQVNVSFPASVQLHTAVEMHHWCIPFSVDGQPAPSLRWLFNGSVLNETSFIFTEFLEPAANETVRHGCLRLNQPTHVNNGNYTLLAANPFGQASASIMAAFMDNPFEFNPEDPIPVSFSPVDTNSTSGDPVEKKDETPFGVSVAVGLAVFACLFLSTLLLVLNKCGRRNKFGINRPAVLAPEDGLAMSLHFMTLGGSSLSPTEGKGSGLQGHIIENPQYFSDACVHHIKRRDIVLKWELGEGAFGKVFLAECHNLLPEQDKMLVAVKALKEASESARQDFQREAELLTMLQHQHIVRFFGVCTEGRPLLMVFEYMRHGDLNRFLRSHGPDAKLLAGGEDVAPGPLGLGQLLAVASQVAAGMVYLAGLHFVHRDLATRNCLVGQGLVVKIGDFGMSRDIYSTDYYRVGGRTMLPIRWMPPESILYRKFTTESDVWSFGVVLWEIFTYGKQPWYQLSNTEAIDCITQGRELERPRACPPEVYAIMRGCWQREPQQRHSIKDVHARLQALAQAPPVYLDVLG

In the assay the target is Human TrkA Protein (Homo sapiens (Human), UniProt P04629). The assay is described as follows: Evaluation of Binding Activity for Human TrkA Protein (TrkA LanthaScreen Eu Kinase Binding Assay). As to conditions: TrkA enzyme, Kinase Tracer 236, TR-FRET, 60 minutes at room temperature. Here is the method:
(Pharmacological Experimental Example 1): Evaluation of Binding Activity for Human TrkA Protein
Measurement was carried out using TrkA LanthaScreen (registered trademark) Eu Kinase Binding Assay (ThermoFisher SCIENTIFIC). To a 384 well plate (Corning), 2.5 μL of the test compound having various concentrations and diluted with Kinase buffer (ThermoFisher SCIENTIFIC) and 2.5 μL of 15 nM TrkA enzyme (ThermoFisher SCIENTIFIC) were added. Moreover, […] Eu-anti-His Tag antibody (ThermoFisher SCIENTIFIC) and 5 μL of 30 nM Kinase (registered trademark) Tracer 236 (ThermoFisher SCIENTIFIC) were added, followed by reaction at room temperature for 60 minutes. After the reaction, the fluorescence intensity of Europium (Emission wavelength 615 nm) and TR-FRET (Emission wavelength 665 nm) with an excitation wavelength of 340 nm were measured with EnVision 2100 (PerkinElmer) to calculate the fluorescence ratio as the amount of the test compound and the TrkA enzyme bonded. The inhibitory activity (IC50 value) of each test compound was calculated with the fluorescence ratio of the well to which a solvent was added instead of the test compound being 0% and the fluorescence ratio of the well without addition of the TrkA protein being 100%.
In Table 1, […] mean Compounds 1 to 62 synthesized in accordance with Examples 1 to 62 described later.
(TR-FRET usually uses a lanthanide donor and a delayed reading to cut background.)
The molecule `Cc1cc(NC(=O)N[C@@H]2c3ccccc3C(C)(C)C[C@H]2O)c(C2CCOCC2)nc1C(N)=O` (racemic) [Compound 27, rac-5-(3-((1R,2R)-2-hydroxy-4,4-dimethyl-1,2,3,4-tetrahydronaphthalen-1-yl)ureido)-3-methyl-6-(tetrahydro-2H-pyran-4-yl)picolinamide] returned an IC50 of 50 to 1000 nM.

As to `Cc1cc(NC(=O)N[C@@H]2c3ccccc3C(C)(C)C[C@H]2O)c(-c2ccccc2)nc1-c1ccc(O)nc1` (racemic) [Compound 6, rac-1-(6′-hydroxy-3-methyl-6-phenyl-[2,3′-bipyridin]-5-yl)-3-((1R,2R)-2-hydroxy-4,4-dimethyl-1,2,3,4-tetrahydronaphthalen-1-yl)urea], the IC50 is not above 50 nM.

Molecule `Cc1cc(NC(=O)N[C@@H]2c3ccccc3C(C)(C)C[C@H]2O)c(-c2ccccc2)nc1C(N)=O` (racemic) [Compound 24, rac-5-(3-((1R,2R)-2-hydroxy-4,4-dimethyl-1,2,3,4-tetrahydronaphthalen-1-yl)ureido)-3-methyl-6-phenylpicolinamide] had an IC50 not above 50 nM.

In the case of `Cc1cnc(-c2ccccc2)c(NC(=O)N[C@@H]2c3ccc(Br)cc3C(C)(C)C[C@H]2O)c1` (racemic) [Compound 22, rac-1-((1R,2R)-6-bromo-2-hydroxy-4,4-dimethyl-1,2,3,4-tetrahydronaphthalen-1-yl)-3-(5-methyl-2-phenylpyridin-3-yl)urea], the half-maximal inhibitory concentration (IC50) is not above 50 nM.

In turn, `Cc1cc(NC(=O)N[C@@H]2c3cc(F)c(F)cc3C(C)(C)C[C@H]2O)c(-c2ccccc2)nc1-c1cccc(C#N)c1` (racemic) [Compound 47, rac-1-(6-(3-cyanophenyl)-5-methyl-2-phenylpyridin-3-yl)-3-((1R,2R)-6,7-difluoro-2-hydroxy-4,4-dimethyl-1,2,3,4-tetrahydronaphthalen-1-yl)urea] registered an IC50 not above 50 nM.

For the molecule `Cc1ncc(-c2nc(-c3ccccc3)c(NC(=O)N[C@@H]3c4ccccc4C(C)(C)C[C@H]3O)cc2C)cn1` (racemic) [Compound 3, rac-1-((1R,2R)-2-hydroxy-4,4-dimethyl-1,2,3,4-tetrahydronaphthalen-1-yl)-3-(5-methyl-6-(2-methylpyrimidin-5-yl)-2-phenylpyridin-3-yl)urea], the 50% inhibitory concentration (IC50) is not above 50 nM.

Turning to `Cc1cc(NC(=O)N[C@@H]2c3ccccc3C(C)(C)C[C@H]2O)c(-c2ccccc2)nc1-c1ccc(S(C)(=O)=O)nc1` [Compound 14, 1-((1R,2R)-2-hydroxy-4,4-dimethyl-1,2,3,4-tetrahydronaphthalen-1-yl)-3-(3-methyl-6′-(methylsulfonyl)-6-phenyl-[2,3′-bipyridin]-5-yl)urea], the IC50 is not above 50 nM.

For `Cc1cc(NC(=O)N[C@@H]2c3cc(F)c(F)cc3C(C)(C)C[C@H]2O)c(-c2ccccc2)nc1-c1cccc(CO)c1` (racemic) [Compound 46, rac-1-((1R,2R)-6,7-difluoro-2-hydroxy-4,4-dimethyl-1,2,3,4-tetrahydronaphthalen-1-yl)-3-(6-(3-(hydroxymethyl)phenyl)-5-methyl-2-phenylpyridin-3-yl)urea], the IC50 is not above 50 nM.

With `Cc1ncc(-c2nc(C3CCOCC3)c(NC(=O)N[C@@H]3c4cc(F)c(F)cc4C(C)(C)C[C@H]3O)cc2C)cn1` (racemic) [Compound 59, rac-1-((1R,2R)-6,7-difluoro-2-hydroxy-4,4-dimethyl-1,2,3,4-tetrahydronaphthalen-1-yl)-3-(5-methyl-6-(2-methylpyrimidin-5-yl)-2-(tetrahydro-2H-pyran-4-yl)pyridin-3-yl) urea], the IC50 was 50 to 1000 nM.

Molecule `Cc1cc(NC(=O)N[C@@H]2c3cc(F)c(F)cc3C(C)(C)C[C@H]2O)c(-c2ccccc2)nc1-c1ccc(C#N)cc1` (racemic) [Compound 52, rac-1-(6-(4-cyanophenyl)-5-methyl-2-phenylpyridin-3-yl)-3-((1R,2R)-6,7-difluoro-2-hydroxy-4,4-dimethyl-1,2,3,4-tetrahydronaphthalen-1-yl)urea] yielded an IC50 not above 50 nM.

`Cc1cc(NC(=O)N[C@@H]2c3ccccc3C(C)(C)C[C@H]2O)c(-c2ccccc2)nc1C(=O)NCC(C)(C)O` (racemic) [Compound 25, rac-N-(2-hydroxy-2-methylpropyl)-5-(3-((1R,2R)-2-hydroxy-4,4-dimethyl-1,2,3,4-tetrahydronaphthalen-1-yl)ureido)-3-methyl-6-phenylpicolinamide] displayed an IC50 not above 50 nM.

`Cc1cc(NC(=O)N[C@@H]2c3cc(F)c(F)cc3C(C)(C)C[C@H]2O)c(-c2ccccc2)nc1-c1ccn(C)n1` (racemic) [Compound 48, rac-1-((1R,2R)-6,7-difluoro-2-hydroxy-4,4-dimethyl-1,2,3,4-tetrahydronaphthalen-1-yl)-3-(5-methyl-6-(1-methyl-1H-pyrazol-3-yl)-2-phenylpyridin-3-yl)urea] came in with an IC50 not above 50 nM.

In turn, `Cc1cc(NC(=O)N[C@@H]2c3cc(F)c(F)cc3C(C)(C)C[C@H]2O)c(-c2ccccc2)nc1-c1cnc(C(C)(C)O)nc1` (racemic) [Compound 54, rac-1-((1R,2R)-6,7-difluoro-2-hydroxy-4,4-dimethyl-1,2,3,4-tetrahydronaphthalen-1-yl)-3-(6-(2-(2-hydroxypropan-2-yl)pyrimidin-5-yl)-5-methyl-2-phenylpyridin-3-yl)urea] came in with an IC50 not above 50 nM.

`Cc1cc(NC(=O)N[C@@H]2c3cc(F)c(F)cc3C(C)(C)C[C@H]2O)c(-c2ccccc2)nc1C(=O)NCC(C)(C)O` (racemic) [Compound 42, rac-5-(3-((1R,2R)-6,7-difluoro-2-hydroxy-4,4-dimethyl-1,2,3,4-tetrahydronaphthalen-1-yl)ureido)-N-(2-hydroxy-2-methylpropyl)-3-methyl-6-phenylpicolinamide] came in with an IC50 not above 50 nM.

In turn, `Cc1cc(NC(=O)N[C@@H]2c3ccc(Br)cc3C(C)(C)C[C@H]2O)c(-c2ccccc2)nc1C(N)=O` (racemic) [Compound 23, rac-5-(3-((1R,2R)-6-bromo-2-hydroxy-4,4-dimethyl-1,2,3,4-tetrahydronaphthalen-1-yl)ureido)-3-methyl-6-phenylpicolinamide] showed an IC50 not above 50 nM.

Turning to `Cc1cc(NC(=O)N[C@@H]2c3cc(F)c(F)cc3C(C)(C)C[C@H]2O)c(-c2ccccc2)nc1-c1ccn(C)n1` (racemic) [Compound 48a], the IC50 is not above 50 nM.

`Cc1cc(NC(=O)N[C@@H]2c3cc(F)c(F)cc3C(C)(C)C[C@H]2O)c(-c2ccccc2)nc1-c1ccc(CO)nc1` (racemic) [Compound 55, rac-1-((1R,2R)-6,7-difluoro-2-hydroxy-4,4-dimethyl-1,2,3,4-tetrahydronaphthalen-1-yl)-3-(6′-(hydroxymethyl)-3-methyl-6-phenyl-[2,3′-bipyridin]-5-yl)urea] came in with an IC50 not above 50 nM.

On to `Cc1cc(NC(=O)N[C@@H]2c3cc(F)c(F)cc3C(C)(C)C[C@H]2O)c(-c2ccccc2)nc1-c1ccc(CO)cc1` (racemic) [Compound 45, rac-1-((1R,2R)-6,7-difluoro-2-hydroxy-4,4-dimethyl-1,2,3,4-tetrahydronaphthalen-1-yl)-3-(6-(4-(hydroxymethyl)phenyl)-5-methyl-2-phenylpyridin-3-yl)urea], for which the IC50 was not above 50 nM.

Regarding `Cc1cc(NC(=O)N[C@@H]2c3cc(F)c(F)cc3C(C)(C)C[C@H]2O)c(-c2ccccc2)nc1-c1cn[nH]c1` (racemic) [Compound 53, rac-1-((1R,2R)-6,7-difluoro-2-hydroxy-4,4-dimethyl-1,2,3,4-tetrahydronaphthalen-1-yl)-3-(5-methyl-2-phenyl-6-(1H-pyrazol-4-yl)pyridin-3-yl)urea], the IC50 was not above 50 nM.
